Laboratory results: patent US10577317B2, “Crystal forms and production methods thereof” (Sunovion Pharmaceuticals Inc., priority 2017, dated 2020)
Like-named read-outs stand apart in the source and are kept apart here.

Legend:
Type in all cases: physicochemical
[1] = DVS water sorption isotherm, 25° C. scanned over 0 to 95% relative humidity (hygroscopicity)
Source text: In various embodiments, the hygroscopicity of crystal forms of racemic amisulpride, enantiomeric amisulpride, and enantiomeric amisulpride solvates are characterized by dynamic vapor sorption (DVS). DVS is a gravimetric technique that measures how much of a solvent is absorbed by a sample by varying the vapor concentration surrounding the sample (e.g., relative humidity) and measuring the change in mass. In the present application, DVS is used to generate water sorption isotherms, which represent the equilibrium amount of vapor sorbed as a function of steady state relative vapor pressure at a constant temperature.

[2] = Solubility (mg/mL) in water, buffers, simulated fluids and organic solvents (Table 1)
[3] = Solid form stability on storage at 25° C. and 60% relative humidity; conditions: after 4 months at 25° C. and 60% relative humidity (RH)
[4] = DVS, 25° C., 0 to 95% relative humidity

- maximum mass change in water sorption isotherms [1, 4]: 0.35%
- average maximum mass change based on the data of Tables 6B and 6C ([1]; DVS, Tables 6B and 6C only): about 0.16%
- average maximum mass change ([1]; DVS, average over the samples of Tables 6A-6C (Form A′) or 6D-6E (Form A)): about 0.22%
- Change Mass ([1]; FIG. 3D, RH 0 %, elapse time 60.72 min, sorption): 0.00 wt %
- Change Mass ([1]; FIG. 3D, RH 1 %, elapse time 32.02 min, desorption): −0.01 wt %
- Change Mass ([1]; FIG. 3D, RH 10 %, elapse time 31.00 min, desorption): 0.01 wt %
- Change Mass ([1]; FIG. 3D, RH 10 %, elapse time 33.25 min, sorption): 0.03 wt %
- Change Mass ([1]; FIG. 3D, RH 20 %, elapse time 31.89 min, sorption): 0.05 wt %
- Change Mass ([1]; FIG. 3D, RH 20 %, elapse time 32.05 min, desorption): 0.03 wt %
- Change Mass ([1]; FIG. 3D, RH 30 %, elapse time 32.20 min, sorption): 0.07 wt %
- Change Mass ([1]; FIG. 3D, RH 30 %, elapse time 62.67 min, desorption): 0.05 wt %
- Change Mass ([1]; FIG. 3D, RH 40 %, elapse time 31.41 min, desorption): 0.07 wt %
- Change Mass ([1]; FIG. 3D, RH 40 %, elapse time 31.53 min, sorption): 0.09 wt %
- Change Mass ([1]; FIG. 3D, RH 50 %, elapse time 31.95 min, sorption): 0.11 wt %
- Change Mass ([1]; FIG. 3D, RH 50 %, elapse time 32.12 min, desorption): 0.08 wt %
- Change Mass ([1]; FIG. 3D, RH 60 %, elapse time 31.87 min, sorption): 0.13 wt %
- Change Mass ([1]; FIG. 3D, RH 60 %, elapse time 32.10 min, desorption): 0.11 wt %
- Change Mass ([1]; FIG. 3D, RH 70 %, elapse time 31.10 min, sorption): 0.16 wt %
- Change Mass ([1]; FIG. 3D, RH 70 %, elapse time 31.50 min, desorption): 0.14 wt %
- Change Mass ([1]; FIG. 3D, RH 75 %, elapse time 31.01 min, desorption): 0.16 wt %
- Change Mass ([1]; FIG. 3D, RH 75 %, elapse time 31.28 min, sorption): 0.18 wt %
- Change Mass ([1]; FIG. 3D, RH 80 %, elapse time 31.43 min, sorption): 0.19 wt %
- Change Mass ([1]; FIG. 3D, RH 80 %, elapse time 32.11 min, desorption): 0.17 wt %
- Change Mass ([1]; FIG. 3D, RH 90 %, elapse time 31.35 min, desorption): 0.28 wt %
- Change Mass ([1]; FIG. 3D, RH 90 %, elapse time 31.97 min, sorption): 0.25 wt %
- Change Mass ([1]; FIG. 3D, RH 95 %, elapse time 32.77 min, sorption): 0.34 wt %
- Change Mass ([1]; FIG. 3D, RH 95 %, elapse time 36.47 min, desorption): 0.35 wt %
- Change Mass ([1]; FIG. 3E, RH 1.33 %, elapse time 60.4 min): 0.000 wt %
- Change Mass ([1]; FIG. 3E, RH 5.06 %, elapse time 923.6 min): −0.028 wt %
- Change Mass ([1]; FIG. 3E, RH 5.09 %, elapse time 590.9 min): −0.004 wt %
- Change Mass ([1]; FIG. 3E, RH 5.15 %, elapse time 243.7 min): −0.010 wt %
- Change Mass ([1]; FIG. 3E, RH 9.91 %, elapse time 260.3 min): −0.006 wt %
- Change Mass ([1]; FIG. 3E, RH 9.94 %, elapse time 598.9 min): 0.000 wt %
- Change Mass ([1]; FIG. 3E, RH 10.06 %, elapse time 582.9 min): 0.003 wt %
- Change Mass ([1]; FIG. 3E, RH 10.08 %, elapse time 915.6 min): −0.023 wt %
- Change Mass ([1]; FIG. 3E, RH 14.90 %, elapse time 606.9 min): 0.004 wt %
- Change Mass ([1]; FIG. 3E, RH 14.99 %, elapse time 270.3 min): 0.000 wt %
- Change Mass ([1]; FIG. 3E, RH 15.08 %, elapse time 574.9 min): 0.010 wt %
- Change Mass ([1]; FIG. 3E, RH 15.12 %, elapse time 907.6 min): −0.017 wt %
- Change Mass ([1]; FIG. 3E, RH 19.74 %, elapse time 278.3 min): 0.006 wt %
- Change Mass ([1]; FIG. 3E, RH 19.88 %, elapse time 614.9 min): 0.009 wt %
- Change Mass ([1]; FIG. 3E, RH 20.10 %, elapse time 566.9 min): 0.017 wt %
- Change Mass ([1]; FIG. 3E, RH 20.12 %, elapse time 899.6 min): −0.012 wt %
- Change Mass ([1]; FIG. 3E, RH 24.83 %, elapse time 623.9 min): 0.014 wt %
- Change Mass ([1]; FIG. 3E, RH 24.90 %, elapse time 891.6 min): −0.007 wt %
- Change Mass ([1]; FIG. 3E, RH 24.92 %, elapse time 287.8 min): 0.013 wt %
- Change Mass ([1]; FIG. 3E, RH 24.95 %, elapse time 558.9 min): 0.024 wt %
- Change Mass ([1]; FIG. 3E, RH 29.82 %, elapse time 296.8 min): 0.019 wt %
- Change Mass ([1]; FIG. 3E, RH 29.84 %, elapse time 632.9 min): 0.019 wt %
- Change Mass ([1]; FIG. 3E, RH 30.09 %, elapse time 551.4 min): 0.031 wt %
- Change Mass ([1]; FIG. 3E, RH 30.10 %, elapse time 884.1 min): −0.001 wt %
- Change Mass ([1]; FIG. 3E, RH 34.80 %, elapse time 305.8 min): 0.026 wt %
- Change Mass ([1]; FIG. 3E, RH 34.87 %, elapse time 641.9 min): 0.024 wt %
- Change Mass ([1]; FIG. 3E, RH 34.94 %, elapse time 875.6 min): 0.005 wt %
- Change Mass ([1]; FIG. 3E, RH 34.95 %, elapse time 543.9 min): 0.038 wt %
- Change Mass ([1]; FIG. 3E, RH 39.84 %, elapse time 314.8 min): 0.033 wt %
- Change Mass ([1]; FIG. 3E, RH 39.90 %, elapse time 865.6 min): 0.011 wt %
- Change Mass ([1]; FIG. 3E, RH 39.92 %, elapse time 533.9 min): 0.045 wt %
- Change Mass ([1]; FIG. 3E, RH 39.94 %, elapse time 650.9 min): 0.028 wt %
- Change Mass ([1]; FIG. 3E, RH 44.92 %, elapse time 659.9 min): 0.034 wt %
- Change Mass ([1]; FIG. 3E, RH 45.02 %, elapse time 325.8 min): 0.040 wt %
- Change Mass ([1]; FIG. 3E, RH 45.04 %, elapse time 523.9 min): 0.053 wt %
- Change Mass ([1]; FIG. 3E, RH 45.07 %, elapse time 856.1 min): 0.018 wt %
- Change Mass ([1]; FIG. 3E, RH 49.78 %, elapse time 334.8 min): 0.047 wt %
- Change Mass ([1]; FIG. 3E, RH 49.88 %, elapse time 668.9 min): 0.040 wt %
- Change Mass ([1]; FIG. 3E, RH 50.07 %, elapse time 845.0 min): 0.026 wt %
- Change Mass ([1]; FIG. 3E, RH 50.10 %, elapse time 512.9 min): 0.060 wt %
- Change Mass ([1]; FIG. 3E, RH 54.90 %, elapse time 345.8 min): 0.055 wt %
- Change Mass ([1]; FIG. 3E, RH 54.96 %, elapse time 679.9 min): 0.046 wt %
- Change Mass ([1]; FIG. 3E, RH 55.12 %, elapse time 501.9 min): 0.067 wt %
- Change Mass ([1]; FIG. 3E, RH 55.14 %, elapse time 834.0 min): 0.035 wt %
- Change Mass ([1]; FIG. 3E, RH 59.94 %, elapse time 356.8 min): 0.062 wt %
- Change Mass ([1]; FIG. 3E, RH 59.95 %, elapse time 688.9 min): 0.053 wt %
- Change Mass ([1]; FIG. 3E, RH 60.08 %, elapse time 490.9 min): 0.075 wt %
- Change Mass ([1]; FIG. 3E, RH 60.19 %, elapse time 823.0 min): 0.044 wt %
- Change Mass ([1]; FIG. 3E, RH 64.92 %, elapse time 699.9 min): 0.060 wt %
- Change Mass ([1]; FIG. 3E, RH 65.00 %, elapse time 365.8 min): 0.071 wt %
- Change Mass ([1]; FIG. 3E, RH 65.13 %, elapse time 814.0 min): 0.053 wt %
- Change Mass ([1]; FIG. 3E, RH 65.14 %, elapse time 479.9 min): 0.081 wt %
- Change Mass ([1]; FIG. 3E, RH 69.90 %, elapse time 710.9 min): 0.067 wt %
- Change Mass ([1]; FIG. 3E, RH 69.95 %, elapse time 376.8 min): 0.081 wt %
- Change Mass ([1]; FIG. 3E, RH 70.05 %, elapse time 468.9 min): 0.088 wt %
- Change Mass ([1]; FIG. 3E, RH 70.16 %, elapse time 803.0 min): 0.062 wt %
- Change Mass ([1]; FIG. 3E, RH 74.60 %, elapse time 385.8 min): 0.089 wt %
- Change Mass ([1]; FIG. 3E, RH 74.67 %, elapse time 719.9 min): 0.074 wt %
- Change Mass ([1]; FIG. 3E, RH 75.19 %, elapse time 457.9 min): 0.096 wt %
- Change Mass ([1]; FIG. 3E, RH 75.43 %, elapse time 792.0 min): 0.073 wt %
- Change Mass ([1]; FIG. 3E, RH 79.52 %, elapse time 728.9 min): 0.081 wt %
- Change Mass ([1]; FIG. 3E, RH 79.61 %, elapse time 394.8 min): 0.098 wt %
- Change Mass ([1]; FIG. 3E, RH 80.43 %, elapse time 783.0 min): 0.084 wt %
- Change Mass ([1]; FIG. 3E, RH 80.44 %, elapse time 448.8 min): 0.105 wt %
- Change Mass ([1]; FIG. 3E, RH 84.52 %, elapse time 403.8 min): 0.109 wt %
- Change Mass ([1]; FIG. 3E, RH 84.80 %, elapse time 737.9 min): 0.090 wt %
- Change Mass ([1]; FIG. 3E, RH 85.39 %, elapse time 774.0 min): 0.096 wt %
- Change Mass ([1]; FIG. 3E, RH 85.43 %, elapse time 439.8 min): 0.117 wt %
- Change Mass ([1]; FIG. 3E, RH 89.49 %, elapse time 412.8 min): 0.123 wt %
- Change Mass ([1]; FIG. 3E, RH 89.52 %, elapse time 746.9 min): 0.103 wt %
- Change Mass ([1]; FIG. 3E, RH 90.18 %, elapse time 430.8 min): 0.129 wt %
- Change Mass ([1]; FIG. 3E, RH 90.24 %, elapse time 765.0 min): 0.109 wt %
- Change Mass ([1]; FIG. 3E, RH 94.51 %, elapse time 421.8 min): 0.142 wt %
- Change Mass ([1]; FIG. 3E, RH 94.81 %, elapse time 756.0 min): 0.122 wt %
- Change Mass ([1]; FIG. 3F, RH 19.77 %, elapse time 317.2 min): 0.035 wt %
- Change Mass ([1]; FIG. 3F, RH 24.90 %, elapse time 326.2 min): 0.042 wt %
- solubility ([2]; aqueous buffer, 0.05M Acetate Buffer, solution pH 4.5, read-out: Solubility (mg/mL): 0.05M Acetate Buffer): > 100 mg/mL
- solubility ([2]; pH 1.1, Simulated Gastric Fluid (no enzyme), pH adjusted to 1.1 (Form A), 1.2 (Form A′), read-out: Solubility (mg/mL): Simulated Gastric Fluid (no enzyme)): > 100 mg/mL
- solubility ([2]; pH 6.7, fassgf or other biorelevant, Simulated Intestinal Fluid (no enzyme), pH adjusted to 6.7 (Form A), 6.9 (Form A′), read-out: Solubility (mg/mL): Simulated Intestinal Fluid (no enzyme)): > 100 mg/mL
SMILES: CCN1CCC[C@H]1CNC(=O)c1cc(S(=O)(=O)CC)c(N)cc1OC [(S)-amisulpride Form A′, S-4-Amino-N-[(1-ethyl-2-pyrrolidinyl)methyl]-5-(ethylsulfonyl)-2-methoxybenzamide]
- hygroscopicity [1, 4]: substantially non-hygroscopic (less than a 1% maximum mass change in water sorption isotherms, at 25 °C scanned over 0 to 95% relative humidity)
- thermodynamic stability of crystal form (conversion to other polymorphs or amorphous form) [3]: not substantially converting to other polymorphs or amorphous form
